Laboratory results from patent US8906416B2, “Xanthenedione derivatives for the treatment of pigmentation and skin ageing disorders” (Pierre Fabre Dermo-Cosmetique, priority 2010, dated 2014).

What was measured:
[1] = reference products of the interpretation scale; cited from earlier work
B16-F10 cells = experiment: Melanin assay test in B16-F10 cells; format: cell-based, murine; settings: for IC50: Mus musculus, B16-F10, 0.1 μM α-MSH stimulated, 72 hours treatment, read-out: Results activity B16-F10 IC50 (50% melanin synthesis inhibition); for Results activity B16-F10, percentage of activity on melanin synthesis: negative value indicates an inhibition
Protocol: This involves a test of measuring the synthesis of melanin by colorimetric assay on a murine melanoma cell line: the B16-F10 line. This test enables the depigmenting power of active ingredients to be evaluated.
The B16-F10 cells are cultured in 96-well plates in DMEM medium, supplemented with FCS (foetal calf serum), and incubated 24 hours at 37° C., 5% CO2. The cells are then stimulated with 0.1 μM α-MSH (to stimulate the synthesis of melanin, the stimulation observed is around 150%) and treated 72 hours with the active ingredients to be tested. Each concentration of active ingredient is tested at least in triplicate. The total melanin followed by the intracellular melanin dissolved in the lysis buffer are then assayed by absorbance reading at 405 nm. The total proteins are assayed in the lysate and the results are expressed in mg melanin/mg proteins. The percentage of activity is calculated as follows:
[formula] A negative value indicates an inhibition, whereas a positive value indicates an induction of the synthesis of melanin. General Experimental Conditions: • Equipment: • CO2 cell incubator (Heraeus), Oven, Centrifuge (Heraeus), Laminar air flow fume hood, 96-well clear bottomed plates—Falcon, sterile cones—Treff Lab, Polylabo, Mithras LB940 (Berthold Technologies)-154/MIPA/003 Biological Equipment: • B16-F10 cell line between P10 and P20 (murine melanocytes) (ATCC, CRL-6475) • Reagents • DMEM without phenol red (GIBCOBRL, 31053-028), 200 mM Glutamax-I Supplement (GIBCOBRL, 35050-038), D-PBS (GIBCOBRL, 14190-094), Foetal calf serum (Invitrogen, 10270-098), Trypsine-EDTA (GIBCOBRL, 25300-054), NaOH (Sigma, S8045-500G), DMSO (Sigma, 471267-1L), Nle, Phe—Melanocyte Stimulating Hormone (Sigma, M-8764), Melanin (Sigma, M-0418), BCA-COPPER (SIGMA, B9643 AND C2284), BSA (SIGMA, P0914) B) Test for the Study of the Antioxidant Capacity by Chemiluminescence (Photochem Analytik Jena) Principle: […]

[2] = Antioxidant capacity by chemiluminescence (Photochem Analytik Jena); format: biochemical; settings: superoxide anion trapping
Protocol: This test is used to determine the antioxidant capacity of molecules. It is a method that generates free radicals by a photochemical signal. The intensity of the oxidation is 1000 times greater than those obtained under normal conditions.
The detection is performed by chemiluminescence. It enables the evaluation of hydrosoluble and liposoluble antioxidant molecules or extracts.
The results are expressed respectively in equivalent quantity of vitamin C or Trolox (6-hydroxy-2,5,7,8-tetramethylchroman-2-carboxylic acid). The sensitivity is of the order of the nanomole.
The antioxidant activity studied in this test represents the capacity to specifically trap the superoxide anions by chemiluminescence.
The quantified results are expressed in equivalent Trolox (standard), i.e. in “μg of product for 1 μg of Trolox”. This signifies that a quantity x of sample is required to obtain an activity equivalent to the activity detected for 1 μg of standard. It is an anti-oxidant power relative to a reference, which can be determined independently of the tested concentration.
The superoxide radical: O2^o^− is generated by a photochemical reaction: L+hv(UV)+O2→L*O2→L^o^++O2^o^− • L*: luminol in the excited state L^o+: luminol radical Detection of the Signal:
Part of the superoxide anions is quenched by anti-oxidants. The remaining free radicals are quantified by chemiluminescence. L^o^++O2^o^−→N2+[…]→AP^2−+hv(luminescence) AP*^2−: aminophthalate in the excited state

SMILES | IC50 (B16-F10 cells) | μg of sample for 1 μg of Trolox [2] | further results
O=C(O)CCCC[C@@H]1CCSS1 (racemic) [Lipoic acid] | – | – | Activity (scale for interpreting the results) [1]: Nil; μg sample for 1 μg of Trolox (scale for interpreting the results) [1]: Negative
Cc1cc(C(C)(C)C)c(O)c(C(C)(C)C)c1 [BHT] | – | – | Activity (scale for interpreting the results) [1]: Good; μg sample for 1 μg of Trolox (scale for interpreting the results) [1]: 3.01 to 50 μg sample for 1 μg of Trolox
N[C@@H](CS)C(=O)O [Cysteine] | – | – | Activity (scale for interpreting the results) [1]: Medium; μg sample for 1 μg of Trolox (scale for interpreting the results) [1]: 50.1 to 1000 μg sample for 1 μg of Trolox
COc1cc(C2C3=C(CC(C)(C)CC3=O)OC3=C2C(=O)CC(C)(C)C3)ccc1O [Example 1, 9-(4-hydroxy-3-methoxyphenyl)-3,3,6,6-tetramethyl-3,4,5,6,7,9-hexahydro-1H-xanthene-1,8(2H)-dione] | 50 µM | 2.1 μg of sample for 1 μg of Trolox | –
CC1(C)CC(=O)C2=C(C1)OC1=C(C(=O)CC(C)(C)C1)C2c1ccc(O)c(O)c1 [Example 2, 9-(3,4-dihydroxyphenyl)-3,3,6,6-tetramethyl-3,4,5,6,7,9-hexahydro-1H-xanthene-1,8(2H)-dione] | 20 µM | 0.03 μg of sample for 1 μg of Trolox | –
COc1cc(C2C3=C(CC(C)(C)CC3=O)OC3=C2C(=O)CC(C)(C)C3)cc(OC)c1O [Example 3, 9-(4-hydroxy-3,5-dimethoxyphenyl)-3,3,6,6-tetramethyl-3,4,5,6,7,9-hexahydro-1H-xanthene-1,8(2H)-dione] | 45 µM | 0.72 μg of sample for 1 μg of Trolox | –
O=C1CC(c2ccccc2)CC2=C1C(c1ccc(O)c(O)c1)C1=C(CC(c3ccccc3)CC1=O)O2 (centres unmarked) [Example 4, 9-(3,4-dihydroxyphenyl)-3,6-diphenyl-3,4,5,6,7,9-hexahydro-1H-xanthene-1,8(2H)-dione] | 7 µM | 0.001 μg of sample for 1 μg of Trolox | –
CC1(C)CC(=O)C2=C(C1)OC1=C(C(=O)CC(C)(C)C1)C2c1cc(C(C)(C)C)c(O)c(C(C)(C)C)c1 [Example 5, 9-(3,5-di-tert-butyl-4-hydroxyphenyl)-3,3,6,6-tetramethyl-3,4,5,6,7,9-hexahydro-1H-xanthene-1,8(2H)-dione] | 2 µM | 50 μg of sample for 1 μg of Trolox | –
COc1cc(C2C3=C(CC(c4ccccc4)CC3=O)OC3=C2C(=O)CC(c2ccccc2)C3)ccc1O (centres unmarked) [Example 6, 9-(4-hydroxy-3-methoxyphenyl)-3,6-diphenyl-3,4,5,6,7,9-hexahydro-1H-xanthene-1,8(2H)-dione] | 6 µM | 2.46 μg of sample for 1 μg of Trolox | –
CCCCC/C=C\C/C=C\CCCCCCCC(=O)Oc1ccc(C2C3=C(CC(C)(C)CC3=O)OC3=C2C(=O)CC(C)(C)C3)cc1OC [Example 7, (9Z,12Z)-2-methoxy-4-(3,3,6,6-tetramethyl-1,8-dioxo-2,3,4,5,6,7,8,9-octahydro-1H-xanthen-9-yl)phenyl octadeca-9,12-dienoate] | – | 19.7 μg of sample for 1 μg of Trolox | –
CC1(C)CC(=O)C2=C(C1)OC1=C(C(=O)CC(C)(C)C1)C2c1ccc(O)cc1 [Example 9, 9-(4-hydroxyphenyl)-3,3,6,6-tetramethyl-3,4,5,6,7,9-hexahydro-1H-xanthene-1,8(2H)-dione] | 37 µM | 7.39 μg of sample for 1 μg of Trolox | –
Cc1cc(C2C3=C(CC(C)(C)CC3=O)OC3=C2C(=O)CC(C)(C)C3)cc(C)c1O [Example 10, 9-(4-hydroxy-3,5-dimethylphenyl)-3,3,6,6-tetramethyl-3,4,5,6,7,9-hexahydro-1H-xanthene-1,8(2H)-dione] | – | 4.10 μg of sample for 1 μg of Trolox | –
COc1cc(C2C3=C(CCCC3=O)OC3=C2C(=O)CCC3)ccc1O [Example 11, 9-(4-hydroxy-3-methoxyphenyl)-3,4,5,6,7,9-hexahydro-1H-xanthene-1,8(2H)-dione] | – | 1.07 μg of sample for 1 μg of Trolox | –
COc1cc(C2C3=C(CC(C(C)C)CC3=O)OC3=C2C(=O)CC(C(C)C)C3)ccc1O (centres unmarked) [Example 12, 9-(4-hydroxy-3-methoxyphenyl)-3,6-diisopropyl-3,4,5,6,7,9-hexahydro-1H-xanthene-1,8(2H)-dione] | 16 µM | 1.64 μg of sample for 1 μg of Trolox | –
COc1cc(C2C3=C(CC(c4ccc(OC)c(OC)c4)CC3=O)OC3=C2C(=O)CC(c2ccc(OC)c(OC)c2)C3)ccc1O (centres unmarked) [Example 14, 3,6-bis(3,4-dimethoxyphenyl)-9-(4-hydroxy-3-methoxyphenyl)-3,4,5,6,7,9-hexahydro-1H-xanthene-1,8(2H)-dione] | – | 2.27 μg of sample for 1 μg of Trolox | –
CCOc1cc(C2C3=C(CC(C)(C)CC3=O)OC3=C2C(=O)CC(C)(C)C3)ccc1O [Example 15, 9-(3-ethoxy-4-hydroxyphenyl)-3,3,6,6-tetramethyl-3,4,5,6,7,9-hexahydro-1H-xanthene-1,8(2H)-dione] | 19 µM | 1.79 μg of sample for 1 μg of Trolox | –
COc1cc(C2C3=C(CC(C)(C)CC3=O)OC3=C2C(=O)CC(C)(C)C3)cc(Cl)c1O [Example 16, 9-(3-chloro-4-hydroxy-5-methoxyphenyl)-3,3,6,6-tetramethyl-3,4,5,6,7,9-hexahydro-1H-xanthene-1,8(2H)-dione] | – | 5.20 μg of sample for 1 μg of Trolox | Results activity B16-F10, percentage of activity on melanin synthesis (B16-F10 cells; 20 μM): −31% to 20 μM
COc1cc(C2C3=C(CC(C)(C)CC3=O)OC3=C2C(=O)CC(C)(C)C3)cc(Br)c1O [Example 17, 9-(3-bromo-4-hydroxy-5-methoxyphenyl)-3,3,6,6-tetramethyl-3,4,5,6,7,9-hexahydro-1H-xanthene-1,8(2H)-dione] | – | 5.18 μg of sample for 1 μg of Trolox | –
COc1cc(C2C3=C(CC(C)(C)CC3=O)OC3=C2C(=O)CC(C)(C)C3)cc(I)c1O [Example 18, 9-(4-hydroxy-3-iodo-5-methoxyphenyl)-3,3,6,6-tetramethyl-3,4,5,6,7,9-hexahydro-1H-xanthene-1,8(2H)-dione] | – | 4.66 μg of sample for 1 μg of Trolox | –
COc1cc(C2C3=C(CC(C)(C)CC3=O)OC3=C2C(=O)CC(C)(C)C3)cc(O)c1O [Example 19, 9-(3,4-dihydroxy-5-methoxyphenyl)-3,3,6,6-tetramethyl-3,4,5,6,7,9-hexahydro-1H-xanthene-1,8(2H)-dione] | – | 0.02 μg of sample for 1 μg of Trolox | Results activity B16-F10, percentage of activity on melanin synthesis (B16-F10 cells; 10 μM): −22% to 10 μM
CC(=O)Oc1ccc(C2C3=C(CC(c4ccccc4)CC3=O)OC3=C2C(=O)CC(c2ccccc2)C3)cc1OC(C)=O (centres unmarked) [Example 26, 4-(1,8-dioxo-3.6-diphenyl-2,3,4,5,6,7,8,9-octahydro-1H-xanthen-9-yl)-1,2-phenylene diacetate] | – | – | Results activity B16-F10, percentage of activity on melanin synthesis (B16-F10 cells; 20 μM): −28% to 20 μM
CC(=O)Oc1ccc(C2C3=C(CC(C)(C)CC3=O)OC3=C2C(=O)CC(C)(C)C3)cc1OC(C)=O [Example 27, 4-(3,3,6,6-tetramethyl-1,8-dioxo-2,3,4,5,6,7,8,9-octahydro-1H-xanthen-9-yl)-1,2-phenylene diacetate] | – | 0.096 μg of sample for 1 μg of Trolox | –
O=C1O[C@H]([C@@H](O)CO)C(O)=C1O [Vitamin C] | – | – | Activity (scale for interpreting the results) [1]: Very good; μg sample for 1 μg of Trolox (scale for interpreting the results) [1]: 0.1 to 3.0 μg sample for 1 μg of Trolox
